{"source": "patent US20180305292A1", "about": "“DERIVATIVES OF NONSTEROIDAL ANTI-INFLAMMATORY DRUGS” (priority 2015, published 2018)", "experiment": "Metabolic stability in minipig intestinal fluid, quantification of released licofelone by HPLC/UV", "assay_type": "in vitro ADME, Gottingen SPF minipig", "conditions": "incubation in diluted minipig intestinal fluid", "description": "a) Preparation and Storage of Minipig Intestinal Fluid (IF)\nIntestinal tissue/fluid and enterocyte samples were taken from a 10 month old, female Gottingen SPF minipig. The body weight was 21 kg. The minipig was fasted for approximately 28 hours before sampling of intestinal fluid/tissues and enterocytes. On the day of sampling, the minipig was weighed and anaesthetised. The animal was killed by exsanguination before sampling of intestinal fluid. An intestinal segment was ligated at both ends before removal. The isolated tissue was placed in isotonic saline and opened by a longitudinal cut for sampling of intestinal fluid.\nThe intestinal tissue from each segment was transferred into a Centrifuge Tube, immersed in 10 ml 50 mM phosphate buffer, pH 6.8 and frozen at −70° C.\nb) Incubation Experiments with Minipig Intestinal Fluid (without FaSSIF) […]\nc) Quantification of Licofelone by HPLC/UV\nA set of six reference solutions (solvent: 1 vol IF and 4 vol 2% bovine serum albumin in FaSSIF pH 6.5) with licofelone concentrations between 38.0 and 0.19 μg/ml and the solvent without licofelone were analyzed in duplicate. The obtained concentration/peak area data pairs were subjected to linear regression analysis and the resulting calibration curve (r^2=0.9999) was used for quantification of licofelone in incubation experiments.", "data": [{"smiles": "COC(=O)/C=C/C(=O)OCCOCCOCCOCCOC(=O)Cc1c(-c2ccc(Cl)cc2)c(-c2ccccc2)c2n1CC(C)(C)C2", "note": "[Example 8, (E)-But-2-enedioic acid 2-{2-[2-(2-{2-[2-(4-chloro-phenyl)-6,6-dimethyl-1-phenyl-6,7-dihydro-5H-pyrrolizin-3-yl]-acetoxy}-ethoxy)-ethoxy]-ethoxy}-ethyl ester methyl ester]", "values": [{"measurement": "Cleavage of the ester bond, release of licofelone and monomethylfumarate", "result": "unexpected smooth cleavage of the ester bond"}]}]}
